{"source": "patent US5220064A", "about": "“Substituted 4'-hydroxyphenylacetic acid derivatives having antiinflammatory and analgesic activity” (Warner-Lambert Company, priority 1989, dated 1993)", "test_system": "mice", "assay": "acetic acid-induced stretching/writhing test in mice (based on Koster et al.)", "type": "in vivo", "conditions": "Mus musculus, sc; subcutaneous, 30 minutes before peritoneal acetic acid (100 mg/kg); mice fasted 24 hours; 15 minute observation; read-out: ED50 (amount producing the desired inhibition of stretching or \"writhing\" in 50 percent of a population)", "source_text": "Illustrative examples of the activity for use as described above for the novel compounds of the present invention are shown as the compound of the noted examples described in the following material when administered in a test based on that of Koster et al. [Fed. Proc., Vol. 18 (1959), p. 412] in which the peritoneal injection of acetic acid to mice provokes repeated stretching and twisting movements which persist for more than six hours. Analgesics prevent or suppress these syndromes which are considered to be an exteriorization of a diffuse abdominal pain. A 1% solution of acetic acid in water is used at a dose of 0.01 ml/g or 100 mg/kg of acetic acid to release the syndrome.\nThe compound to be tested is subcutaneously administered 30 minutes before the acetic acid injection and the mice are fasted 24 hours before the start of the test. The stretching for the mice is observed and totaled for each mouse in a 15 minute observation period starting just after the acetic acid injection. The results are expressed as mg/kg which amount produces the desired inhibition of stretching or \"writhing\" in 50 percent of a population.", "data": [{"smiles": "CCCCCCCCNC(=O)Cc1ccc(O)c(Cl)c1", "note": "[Example 1, Benzeneacetamide, 3-Chloro-4-hydroxy-N-octyl-]", "values": [{"measurement": "ED50", "value": 6.1, "unit": "mg/kg"}]}, {"smiles": "CCCCCCCCNC(=O)Cc1ccc(O)c(F)c1", "note": "[Example 3, Benzeneacetamide, 3-Fluoro-4-hydroxy-N-octyl-]", "values": [{"measurement": "ED50", "value": 3.2, "unit": "mg/kg"}]}, {"smiles": "CCCCCCCCNC(=O)Cc1ccc(O)c(Br)c1", "note": "[Example 2, Benzeneacetamide, 3-Bromo-4-hydroxy-N-octyl-]", "values": [{"measurement": "ED50", "value": 2.5, "unit": "mg/kg"}]}]}
